The values below come from patent US20030211577A1, “Novel G protein-coupled receptor, GAVE7” (priority 2001, published 2003).

The experiment has as its system GAVE7 expression in THP-1 cells. Nature of the experiment: Immune cell regulation: GAVE7 expression in PMA-differentiated THP-1 cells by Northern blot or TaqMan assay. The format is cell-based. As to conditions: PMA differentiated THP-1 cells stimulated with LPS (10 μg/ml) for 4 hours and 24 hours, actin control. On the procedure: THP-1 cells were obtainied from the American Type Culture Collection (Manassas, Va.) and maintained in RPMI culture medium (RPMI 1640, 100 IU/ml penicillin-streptomycin, 10% heat-inactivated fetal bovine serum) at 37° C. in a humidfied 95% air/5% CO2 tissue culture incubator. THP-1 cells were treated with 10 nM phorbol-12-myristate-13-acetate (PMA) and incubated overnight to differentiate the monocyte into an adhereent macrophage-type cell. The differentiated cells adhere, stop proliferating and express high levels of CD14. LPS activates macrophages and elicits an inflammatory response. The cells were washed once with the culture medium and grown for an additional 48 hours in the absence of PMA. The PMA differentiated cells were stimulted with or without LPS (10 μg/ml) for 4 hours and 24 hours.
The cells then were assayed for GAVE7 expression by Northern blot or TaqMan assay. Cell exposed to actin served as a control.

For Lipopolysaccharide [LPS], the GAVE7 expression entry is given as “down-regulated”.
